Reference: patent US12497359B2, “Acrylamide derivatives” (NRG Therapeutics Ltd, priority 2020, dated 2025)
≈ marks a conversion by molar mass, not a printed value. Counter-ions that a name gives are not always drawn.

Columns and labels:
mPTP = mPTP activity assay in isolated rat liver mitochondria (Ca2+ retention, Fluo5N, FLIPR); assay type: biochemical; details: isolated rat liver mitochondria; average value from multiple experiments (n ≥ 2)
Source text: Pharmacological inhibition or modulation of the mPTP can be measured in well characterised ‘Ca^2+ retention’ assays performed in isolated mitochondria. In vitro, isolated mitochondria rapidly sequester exogenous Ca^2+ until the intramitochondrial Ca^2+ concentration reaches the threshold for mPTP activation. Once the pore is activated, mitochondrial integrity is compromised and the stored Ca^2+ is released. The distribution of Ca^2+ between extra- and intra-mitochondrial compartments can be measured in real time with the use of membrane-impermeant Ca^2+ sensitive fluorescent dyes. Depending on the configuration of the assay, inhibition or modulation of the mPTP either delays the opening of the pore or increases the concentration of Ca^2+ required to induce mPTP opening.
mPTP activity was measured in mitochondria freshly isolated from female Sprague Dawley (250 to 300 gram) rat livers using the following method. Cervical dislocation was performed on the rat. The liver was then perfused in-situ with ˜40 ml cold Dulbecco's Phosphate Buffered Saline (DPBS) prior to dissection and transferred into 30 ml Isolation Buffer (250 mM Sucrose, 10 mM KCl, 1 mM EGTA, 1 mM EDTA, 25 mM HEPES, adjusted to pH 7.5 with 1 M NaOH). Each lobe of the liver was then removed from the buffer, minced using tweezers and a scalpel into ˜5 mm pieces then transferred into a 50 ml Potterton dounce homogenization tube on ice containing 30 ml ice-cold centrifugation buffer (300 mM Trehalose, 25 mM HEPES, 1 mM EGTA, 1 mM EDTA, 10 mM KCl, adjusted to pH 7.5 with 1 M NaOH and supplemented with 0.1% bovine serum albumin (BSA) and complete protease inhibitor cocktail (one tablet of inhibitor per 50 mls of buffer). Homogenisation was carried out using a teflon pestle at 1800 rpm. The slurry was centrifuged at 800 g for 10 min at 4° C., then the supernatant centrifuged at 10,000 g for 10 min. The pellet was washed once with FLIPR assay buffer (75 mM Mannitol, 25 mM Sucrose, 5 mM Potassium Phosphate Monobasic, 20 mM Tris base, 100 mM KCl, 0.1% BSA adjusted to pH 7.4 with 5 M HCl) centrifuged again, then resuspended in FLIPR assay buffer to a concentration of 8.8 mg/ml protein.
Test compounds (10 mM stock in DMSO) were serially diluted in DMSO in half log steps to generate 10 test concentrations (final concentrations in assay 30 μM to 1 nM). An intermediate dilution of 5 μl DMSO samples into 247 μl FLIPR assay buffer was carried out prior to transfer of 5 μl into duplicate wells of a 384 well polypropylene assay plate. Control wells were 0.5% (v/v) DMSO and 5 μM cyclosporin A.
A stock mitochondria/Fluo5N assay solution was prepared in 5.6 ml FLIPR assay buffer (at RT) supplemented with succinate disodium salt (10 mM), rotenone (1 μM), Fluo5N pentapotassium salt (2 μM) and 1 ml mitochondria suspension, then transferred (15 μl) into the assay plate containing test compounds and incubated for 10 min at RT. Assay plates were then transferred to a FLIPR Tetra plate reader (Molecular Devices). Dye fluorescence was then measured every 3 sec for a total of 10 min. After 12 sec, a 2.5 μl bolus of CaCl2 (75 μM) was added from a source plate containing 675 μM CaCl2 in FLIPR assay buffer. IC50 values for test compounds were calculated using the fluorescence value collected at the 10 min timepoint with % inhibition calculated using the DMSO control and cyclosporin A values as […] respectively.

[1] = Hepatocyte clearance assay, rat; assay type: in vitro ADME; details: cryopreserved primary rat hepatocytes, average value from two experiments, read-out: Rat heps intrinsic clearance (CLint)
Method: In vitro clearance studies were performed in primary rat and human hepatocytes (BioIVT). Vials of cryopreserved rat or human hepatocytes were thawed in a 37° C. water bath for 2 min. Cells were transferred into thawing medium (Williams' Medium E containing 30% Percoll, 1× GlutaMAX-1, 15 mM HEPES, 5% fetal bovine serum (FBS), 4 μg/ml insulin, 1 μM dexamethasone), centrifuged at 100 g for 10 min then resuspended in culture medium (Leibovitz's L-15 Medium) at a concentration of 0.5×10^6 viable cells/mL (number of viable cells assessed using AO/PI staining). Hepatocytes (198 μL) were transferred into wells of a 96-well non-coated plate and placed in a 37° C. incubator for 10 min. Test compound solutions were prepared from 10 mM stocks in DMSO, diluted to 100 μM in 50% (v/v in water) acetonitrile. Test compound samples (2 μl) were added to each well of hepatocytes and incubated at 37° C. Samples (25 μl) were collected at t=0, 15, 30, […] and 120 min, mixed with 6 volumes (150 μl) of acetonitrile containing internal standard (100 nM alprazolam, 200 nM caffeine and 100 nM tolbutamide), vortexed for 5 min and centrifuged for 45 min at 3220 g. An aliquot of supernatant (100 μL) was diluted with 100 μL ultra-pure water, and the mixture was used for LC/MS/MS analysis. All incubations were performed in duplicate. Peak areas were determined from extracted ion chromatograms. The slope value, k, was determined by linear regression of the natural logarithm of the remaining percentage of the parent drug vs. incubation time curve. The in vitro half-life (in vitro t1/2) was determined from the slope value: in vitro t1/2=0.693/k. Conversion of the in vitro t1/2 (in min) into the in vitro intrinsic clearance (in vitro CLint, in μL/min/1×10^6 cells) was done using the following equation (mean of duplicate determinations): • in vitro CLint=kV/N • V=incubation volume (0.2 mL) • N=number of hepatocytes per well (0.1×10^6 cells). Microsomal Clearance Assay

PBS solubility = assay type: physicochemical; details: aqueous buffer, kinetic from dmso stock; PBS pH 7.4, 2 hr at 25° C.
Method: Test compounds were prepared as 10 mM stocks in DMSO and 15 μl samples transferred in duplicate into 1.5 mL glass flat bottom vials (BioTech Solutions). Fasted state simulated intestinal fluid (FaSSIF) or PBS (pH 7.4) was added to each vial to final volume of 500 μl. One PTFE encapsulated stir stick (V&P Scientific) was placed in each vial before sealing with PTFE/SIL plugs (BioTech Solutions). Vials were shaken at 1100 rpm for 2 hr at 25° C. Samples were then filtered through MultiScreen Solvinert filter plates (Millipore) via vacuum filtration. Aliquots of filtrate (5 μl) plus 5 μl DMSO were diluted in 490 μl 50% acetonitrile in water containing internal standard. The filtrate was analysed and quantified against a standard of known concentration using LC-MS/MS. Solubility values of the test compound and control compound were calculated as follows: [Sample]=(Area ratiosample*INJ VOL STD*DFsample*[STD])/(Area ratio STD*INJ VOLsample).

| mPTP Rat liver pIC50* (mPTP) | hepatocyte CLint at 1 µM [1] | solubility at 2 h (PBS solubility) | SMILES |
| --- | --- | --- | --- |
| 6.2 |  |  | C[C@@H]1Cc2ccccc2[C@H]1NC(=O)/C=C/c1ccc2cn[nH]c2c1 (single isomer, unassigned) [Example 14d] |
| 6.6 |  |  | O=C(/C=C/c1ccc2cn[nH]c2c1)N[C@@H]1C[C@@H](F)c2ccccc21 (single isomer, unassigned) [Example 25] |
| 6.2 |  |  | O=C(/C=C/c1ccc2cn[nH]c2c1)N[C@@H]1C[C@H](F)c2ccccc21 (single isomer, unassigned) [Example 26] |
| 7.6 | 60 µL/min/1e6 cells |  | O=C(/C=C/c1cc2[nH]ncc2cc1F)NC1CCc2ccccc21 (stereo not shown) [Example 10, (E)-N-(2,3-dihydro-1H-inden-1-yl)-3-(5-fluoro-1H-indazol-6-yl)acrylamide] |
| 6.0 |  |  | O=C(/C=C/c1cc2[nH]ncc2cc1Cl)NC1CCc2ccccc21 (stereo not shown) [Example 12, (E)-3-(5-chloro-1H-indazol-6-yl)-N-(2,3-dihydro-1H-inden-1-yl)acrylamide] |
| 7.3 |  |  | CC1Cc2ccccc2C1NC(=O)/C=C/c1ccc2cn[nH]c2c1 (stereo not shown) [Example 14, (E)-3-(1H-indazol-6-yl)-N-(2-methyl-2,3-dihydro-1H-inden-1-yl)acrylamide] |
| 6.9 | 20 µL/min/1e6 cells | 5.9 µM (≈ 1.97 µg/mL) | CC1COc2ccccc2C1NC(=O)/C=C/c1ccc2cn[nH]c2c1 (stereo not shown) [Example 15, (E)-3-(1H-indazol-6-yl)-N-(3-methylchroman-4-yl)acrylamide] |
| 6.0 |  |  | O=C(/C=C/c1ccc2cn[nH]c2c1)Nc1ccccc1OCc1ccccc1 [Example 16, (E)-N-(2-(benzyloxy)phenyl)-3-(1H-indazol-6-yl)acrylamide] |
| 6.9 |  |  | O=C(/C=C/c1ccc2cn[nH]c2c1)Nc1ccccc1COc1ccccc1 [Example 17, (E)-3-(1H-indazol-6-yl)-N-(2-(phenoxymethyl)phenyl)acrylamide] |
| 7.6 | 179 µL/min/1e6 cells | 0.08 µM (≈ 0.0315 µg/mL) | O=C(/C=C/c1ccc2cn[nH]c2c1)Nc1cccc2cnn(Cc3ccccc3)c12 [Example 19, (E)-N-(1-benzyl-1H-indazol-7-yl)-3-(1H-indazol-6-yl)acrylamide] |
| 7.5 | 10 µL/min/1e6 cells | 1.3 µM (≈ 0.413 µg/mL) | Cn1ncc2cccc(NC(=O)/C=C/c3ccc4cn[nH]c4c3)c21 [Example 20, (E)-3-(1H-indazol-6-yl)-N-(1-methyl-1H-indazol-7-yl)acrylamide] |
| 6.5 |  |  | Cc1cccc(NC(=O)/C=C/c2ccc3cn[nH]c3c2)c1 [Example 21, (E)-3-(1H-indazol-6-yl)-N-(m-tolyl)acrylamide] |
| 6.4 |  |  | O=C(/C=C/c1ccc2cn[nH]c2c1)Nc1cccc(Cl)c1 [Example 22, (E)-N-(3-chlorophenyl)-3-(1H-indazol-6-yl)acrylamide] |
| 5.9 |  |  | O=C(/C=C/c1ccc2cn[nH]c2c1)Nc1cccc(F)c1 [Example 23, (E)-N-(3-fluorophenyl)-3-(1H-indazol-6-yl)acrylamide] |
| 6.8 |  |  | O=C(/C=C/c1ccc2cn[nH]c2c1)Nc1ccccc1CO [Example 27, (E)-N-(2-(hydroxymethyl)phenyl)-3-(1H-indazol-6-yl)acrylamide] |
| 7.0 |  |  | Cc1cccc(F)c1NC(=O)/C=C/c1ccc2cn[nH]c2c1 [Example 33, (E)-N-(2-fluoro-6-methylphenyl)-3-(1H-indazol-6-yl)acrylamide] |
| 5.7 |  |  | O=C(/C=C/c1cc2[nH]ncc2cn1)NC1CCc2ccccc21 (stereo not shown) [Example 35, (E)-N-(2,3-dihydro-1H-inden-1-yl)-3-(1H-pyrazolo[4,3-c]pyridin-6-yl)acrylamide] |
| 5.0 |  |  | Cc1cccc2c1C(NC(=O)/C=C/c1ccc3cn[nH]c3c1)CC2 (stereo not shown) [Example 38, (E)-3-(1H-indazol-6-yl)-N-(7-methyl-2,3-dihydro-1H-inden-1-yl)acrylamide] |
| 5.8 |  |  | CC1CC(NC(=O)/C=C/c2ccc3cn[nH]c3c2)c2ccccc21 (stereo not shown) [Example 39, (E)-3-(1H-indazol-6-yl)-N-(3-methyl-2,3-dihydro-1H-inden-1-yl)acrylamide] |

| SMILES | mPTP Rat liver pIC50* (mPTP) | hepatocyte CLint at 1 µM [1] | solubility at 2 h (PBS solubility) |
| --- | --- | --- | --- |
| C[C@@H]1CCCC[C@H]1NC(=O)/C=C/c1ccc2cn[nH]c2c1 (single isomer, unassigned) [Example 4a] | 6.5 |  |  |
| C[C@@H]1CCCC[C@H]1NC(=O)/C=C/c1ccc2cn[nH]c2c1 (single isomer, unassigned) [Example 4b] | 6.3 |  |  |
| O=C(/C=C/c1ccc2cn[nH]c2c1)Nc1ccccc1COC1CCC1 [Example 18, (E)-N-(2-(cyclobutoxymethyl)phenyl)-3-(1H-indazol-6-yl)acrylamide] | 6.7 |  |  |
| O=C(/C=C/c1ccc2cn[nH]c2c1)Nc1ccccc1COC1CN(CCF)C1 [Example 30, (E)-N-(2-(((1-(2-fluoroethyl)azetidin-3-yl)oxy)methyl)phenyl)-3-(1H-indazol-6-yl)acrylamide Hydrochloride] | 5.8 |  |  |
| C#CCOCc1ccccc1NC(=O)/C=C/c1ccc2cn[nH]c2c1 [Example 40, (E)-3-(1H-indazol-6-yl)-N-(2-((prop-2-yn-1-yloxy)methyl)phenyl)acrylamide] | 7.1 |  |  |
